Tests used:
Assay type in all cases: cell-based
A549 cells [1] = assay: GFP-LC3 puncta formation in transfected A549 cells; details: 24 h
Method: GFP-LC3 expression vector was utilized to monitor and quantify the induction of autophagy following the 3rd autophagy guidelines. A549 cells were seeded at a density of 2×10^5 cells/well in 6-well plates, according to the manufacturers instructions. Lipofectamine™ 2000 was incubated with GFP-LC3 in Opti-MEM reduced serum medium for 20 min at room temperature. The mixture was added drop by drop to the cells and then incubated for 4-6 h. The DNA/Lipofectamine™ 2000 medium was replaced by fresh medium and cultured for another 24 h. […] The percentage of autophagic cells was calculated by counting the number of the cells showing increased punctuate pattern of LC3 fluorescence (≧10 dots/cell) in immunofluorescence positive cells over the total number of cells in the same field. A minimum of 300 cells from randomly selected fields were scored.

LC3-II = assay: Western blot of LC3-I to LC3-II conversion (autophagy); details: 24 h; for accumulation of LC3-II under deltarasin: A549 cells
Method: (§1) Cells were washed twice with cold PBS and then lysed in RIPA lysis buffer containing protease and phosphatase inhibitors. Protein concentration of the cell lysate was measured by using the Bio-Rad protein assay kit (Bio-Rad, Philadelphia, Pa., USA). After equalizing the protein concentrations of the samples, 5×laemmli buffer was added and boiled at 100° C. for 5 min. Equal amounts of protein (20-40 μg per lane) were separated with a 10% SDS-PAGE gel, then the separated proteins were transferred to a nitrocellulose (NC) membrane, which was then exposed to 5% non-fat dry milk in TBS contains 0.1% Tween 20 (0.1% TBST) for 1 h at room temperature with constant agitation, followed by overnight incubation at 4° C. with primary anti-bodies. After washing 3 times with TBST, the membranes were incubated with secondary rabbit or mouse fluorescent antibodies, then the signal intensity of the membranes was detected by anLI-COR Odessy scanner (Belfast, Me., USA). All primary antibodies were diluted in 1:1000, while their recommended secondary antibodies were diluted in 1:10000.

A549 cells [2] = assay: Cell apoptosis assay, Annexin V/PI flow cytometry; details: 24 h
Method: (§2) Apoptosis was measured using the Annexin V-FITC apoptosis detection kit (BD Biosciences, San Jose, Calif., USA), according to the manufacturer protocol. Briefly, A549, H358 and PANC-1 cells (1.0×10^5 cells/well) were allowed to attach in a six-well plate for 24 h, cells were treated with deltarasin for 24 h. Subsequently, cells were trypsinized, washed with PBS and stained with 100 μL binding buffer containing 2 μl Annexin-V FITC (2.5 μg/ml) and 5 μl propidium iodide (PI) (50 μg/ml) incubated in the dark at room temperature for 15 min, before further addition of 400 μl of 1×Annexin-binding buffer. The stained cells were analyzed quantitatively using a BD Aria III Flow Cytometer (BD Biosciences, San Jose, Calif., USA). Data were analyzed by Flow Jo software.

intracellular ROS = assay: Detection of ROS production by DCF-DA flow cytometry; details: PANC-1, A549 and H358 cells, 24 h
Method: Intracellular ROS generation was measured by DCF-DA fluorescence probe using flow cytometry. Briefly, A549, H358 and PANC-1 cells (1×10^5 cells/well) were seeded in a six-well plate, and different concentrations of deltarasin were added into the wells. After treatment with deltarasin for 24 h, the treated cells were detached with trypsin, and washed twice with PBS and incubated with 10 μM DCF-DA for 30 min at 37° C. in the dark, the fluorescence-stained cells were then analyzed using a FACS BD Aria III flow cytometer.

A549 cells [3] = assay: Cell viability assay (MTT)
Method: […] At the end of the incubation, 10 μl of MTT (5 mg/mL, Sigma) were added into each well for 4 h at 37° C., then the crystals were dissolved in 100 μl of the resolved solution (10% SDS and 0.1 mM HCL). The absorbance at 570 nm was measured using a microplate reader (Tecan, Morrisville, N.C., USA). The cell viability was calculated relative to untreated controls. At least 3 independent experiments were performed and the data were plotted as curve graph.

PARP, Bcl-2 and Bax = assay: Western blot of apoptosis-related proteins in A549 cells; details: 24 h
Method: as §1

H358 cells [4] = assay: Cell apoptosis assay, Annexin V/PI flow cytometry; details: 24 h, deltarasin 5 μM, 3-MA 5 mM where co-treated
Method: as §2

KRAS = assay: Immunofluorescence of KRAS cellular localization in A549 cells; details: 5 μM, 24 h
Method: Cells were plated on 6-well plates and grown overnight, then treated with 5 μM deltarasin or 5 mM 3-MA for 24 h. Cells were fixed with 4% paraformaldehyde for 20 min at 4° C., followed by permeabilized with 0.2% Triton X-100 in PBS for 10 min. Subsequently, the cells were blocked with 2% BSA/PBS for 30 min at room temperature, then incubated with KRAS antibody (1:100) overnight at 4° C., followed by the secondary antibody (1:500) for 1 h at room temperature. The nuclear was stained with 1 μg/ml Hoechst staining for 10 min in the dark. The cells were visualized using fluorescent microscopy.

[5] = test system: AMPK-mTOR signaling pathway; assay: Western blot of AMPK-mTOR pathway in A549 cells; details: 0-5 μM, 24 h
Method: as §1

[6] = test system: c-Raf, Akt and ERK phosphorylation; assay: Western blot of KRAS downstream signalling; details: PANC-1, A549 and H358 cells, 24 h, 0-5 μM
Method: as §1

H358 cells [7] = assay: Cell viability assay (MTT); details: Homo sapiens, NCI-H358, 72 h
Method: (§3) 3000 cells were seeded at 96-well plates and cultured overnight for cell adhesion, and treated with DMSO or various concentrations of deltarasin for 72 h. At the end of the incubation, 10 μl of MTT (5 mg/mL, Sigma) were added into each well for 4 h at 37° C., then the crystals were dissolved in 100 μl of the resolved solution (10% SDS and 0.1 mM HCL). The absorbance at 570 nm was measured using a microplate reader (Tecan, Morrisville, N.C., USA). The cell viability was calculated relative to untreated controls. At least 3 independent experiments were performed and the data were plotted as curve graph.

PANC-1 cells = assay: Cell viability assay (MTT); details: Homo sapiens, 72 h
Method: as §3

GTP-RAS = assay: RAS activation assay (Raf1 RBD pull-down) in A549 cells; details: 5 μM, 24 h
Method: A549 cells were treated with deltarasin for 24 h at 5 μM. Cells were lysed in lysis buffer, adjusted the volume of each sample to 1 ml with 1×Assay Lysis Buffer. Then 40 μl of the Raf1 RBD Agarose bead slurry was swiftly added to each samples. The samples were incubated at 4° C. for 1 h with gentle agitation. The beads were washed 3 times with cold lysis buffer, and bounded protein was resuspended in 40 μl of 2×reducing SDS-PAGE sample buffer and heated at 100° C. for 5 min. The level of […] was detected after SDS-PAGE followed by Western blot.

A549 cells [8] = assay: Colony formation assay; details: 10 days
Method: Detailed procedures of colony formation assay were described previously (Franken, N. A., et al., Nature protocols, 2006, 1(5):2315-2319). A549 cells were seeded in a six-well plate at a density of 500 cells per well. The cells were exposed to various concentrations of deltarasin. After 10-14 days, the colonies were fixed with 4% paraformaldehyde and stained with 0.5% (0.5% w/v) crystal violet solutions, the number of colonies were counted under a dissecting microscope.

With `Cn1cnc(N)c2ncnc1-2` [3-MA, 3-methyladenine] the “number of GFP-LC3 puncta under deltarasin” value (A549 cells [1]; 5 μM deltarasin plus 5 mM 3-MA) was “significantly diminished” and the “accumulation of LC3-II induced by deltarasin” value (LC3-II; PANC-1, A549 and H358 cells, 5 μM deltarasin plus 5 mM 3-MA) was “suppressed”.
With `CC(=O)N[C@@H](CS)C(=O)O` [NAC, N-acetyl cysteine] the deltarasin-induced apoptosis (A549 cells [2]; 5 μM deltarasin plus 5 μM NAC) was “decreases”, the “high level of ROS induced by deltarasin” value (intracellular ROS; 5 μM deltarasin plus 5 μM NAC) was “suppressed” and the deltarasin-induced cell cytotoxicity (A549 cells [3]; 5 μM deltarasin plus 5 μM NAC, 24 h) was “decreases”. The “PARP cleavage under deltarasin” value (PARP, Bcl-2 and Bax; 5 μM deltarasin plus 5 μM NAC) was “suppressed” and the “accumulation of LC3-II under deltarasin” value (LC3-II; 5 μM deltarasin plus 5 μM NAC) was “suppressed”.
`c1cc(-c2cnn3cc(-c4ccc(OCCN5CCCCC5)cc4)cnc23)ccn1` [compound C] was tested, and the “accumulation of LC3-II under deltarasin” value (LC3-II; 5 μM deltarasin plus 5 μM Compound C) was “suppressed”.
`c1ccc(Cn2c(-c3ccc(OC[C@H](C4CCNCC4)n4c(-c5ccccc5)nc5ccccc54)cc3)nc3ccccc32)cc1` [deltarasin] was tested, and the cell apoptosis (H358 cells [4]) was 15.99%, the “induction of apoptosis vs untreated cells” value (A549 cells [2]; 5 μM) was “significantly induced apoptosis” and the cell apoptosis (A549 cells [2]; deltarasin 5 μM, 3-MA 5 mM where co-treated) was 11.25%. The “intracellular ROS levels” value (intracellular ROS; 5 μM) was “significantly elevated”, the IC50 (A549 cells [3]; Homo sapiens, 72 h, MTT) was 5.29 ± 0.7 µM and the “cleavage of PARP” value (PARP, Bcl-2 and Bax; 5 μM) was “induction of the cleavage of PARP”. The “expression of anti-apoptotic protein Bcl-2” value (PARP, Bcl-2 and Bax) was “reduction”, the “expression of pro-apoptotic protein Bax” value (PARP, Bcl-2 and Bax) was “increase” and the GFP-LC3 puncta formation (A549 cells [1]; 5 μM, vs untreated control) was “increased percentage”. The KRAS cellular localization (KRAS) was “reduced the amount of KRAS protein at the plasma membrane and displaced KRAS into the cytoplasm”, the “mTOR and p70S6K phosphorylation” value [5] was “suppressed” and the p-AMPK level [5] was “up-regulation”. For the same compound, the “c-Raf, Akt and ERK phosphorylation” value [6] was “inhibited”, the IC50 (H358 cells [7]) was 4.21 ± 0.72 µM and the IC50 (PANC-1 cells) was 3.86 ± 0.96 µM. The “binding of GTP to c-Raf-1 binding domain (KRAS-GTP level)” value (GTP-RAS) was “significantly inhibited”, the colony formation capacity (A549 cells [8]; 0-5 μM) was “significantly inhibits” and the colonies formed (A549 cells [8]; 5 μM) was “no visible colonies”. The “conversion of LC3-I to LC3-II” value (LC3-II; PANC-1, A549 and H358 cells, 0-5 μM, dose-dependent) was “distinctly facilitated”.

Reference: patent US9861623B1, “Combination treatment of RAS-positive diseases with PDE-δ inhibitor and direct autophagy inhibitor” (Macau University of Science and Technology, priority 2016, dated 2018)
